Laboratory results reported in patent publication US10570117B2, “Phenylimidazole compound” (Otsuka Pharmaceutical Factory, Inc., priority 2015, dated 2020).
Values after ≈ are worked out from the molar mass of the structure shown. Like-named read-outs stand apart in the source and are kept apart here.

Key:
[1] = system: lipoprotein lipase (LPL) gene; experiment: LPL mRNA elevating action (RT-PCR quantification of LPL mRNA in C2Cl2 cells); type: cell-based, mouse; settings: Mus musculus, 24 h, compound 10 μM, ratio relative to the amount of LPL mRNA in cells with DMSO only, read-out: Rate of increase in LPL mRNA
Protocol: LPL mRNA Elevating Action
C2Cl2 cells (cell strain derived from striated muscle of mouse) were seeded in 96-well plates using a DMEM medium (Gibco) (containing 2 mM L-glutamine and 10% fetal bovine serum). After the cells were grown, the medium was removed. Subsequently, media obtained by adding dimethyl sulfoxide (DMSO) solutions of the compounds to the same medium as described above to a concentration of 10 μM were individually added to the cells and allowed to stand for 24 hours. The compound-containing media were removed, and the plates were washed with phosphate buffered saline. Thereafter, the remaining cells were lysed and subjected to a reverse transcription polymerase chain reaction (RT-PCR reaction) to obtain cDNA. Primers specific to lipoprotein lipase (LPL) gene, a necessary enzyme, etc., were added to the obtained cDNA. The mixture was set in 7500 Fast Real Time PCR System produced by Applied Biosystem to perform a PCR reaction (20 cycles) and the amount of LPL mRNA amplified was quantified. The LPL mRNA elevating action of each compound in the test cells was indicated as the ratio relative to the amount of LPL mRNA in cells allowed to stand in a medium to which only DMSO was added, with the amount being defined as 1.
As Comparative Example 1, a test was performed in the same manner as above, using a compound disclosed as the compound of Example 57 in WO2010/090200.

[2] = Solubility in gastric juice or intestinal juice model fluid (precipitation method using DMSO); type: physicochemical; settings: room temperature
Summary of the method: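 Compound in DMSO added to JP disintegration test fluid 1 (pH 1.2) or fluid 2 (pH 6.8) and shaken 24 h at room temperature. After filtration, dissolved concentration (μg/mL) determined by UV absorbance against compound calibration curves.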

[3] = pH 1.2, simulated gastric fluid, kinetic from dmso stock, 1st fluid for Disintegration Test of Japanese Pharmacopoeia (pH: 1.2), read-out: Solubility (μg/mL) 1st fluid
[4] = pH 6.8, kinetic from dmso stock, 2nd fluid for Disintegration Test of Japanese Pharmacopoeia (pH: 6.8), read-out: Solubility (μg/mL) 2nd fluid

| Structure (SMILES) | fold induction at 10 µM [1] | melting point | solubility at 24 h [2, 3] [µg/mL] | solubility at 24 h [2, 4] [µg/mL] |
| --- | --- | --- | --- | --- |
| COc1cc(OCc2ccc(F)cc2F)ccc1-c1[nH]c(-c2ccc(F)nc2)nc1Cl [Example 285] | 3.01 | 163 to 165 °C | – | – |
| COc1cc(OCc2ccc(Br)cc2F)ccc1-c1[nH]c(-c2ccc(F)nc2)nc1Br [Example 260] | 2.95 | 158 to 161 °C | – | – |
| COc1cc(OCc2ccc(C(F)(F)F)nc2)ccc1-c1c[nH]c(-c2ccc(Cl)cn2)n1 [Example 32] | 2.58 | 186 to 189 °C | – | – |
| COc1cc(OCc2cccc(C(F)(F)F)n2)ccc1-c1[nH]c(-c2ccc(F)nc2)nc1Br [Example 273] | 2.5 | 200 to 202 °C (dec.) | – | – |
| COc1cc(OCc2ncccc2C#N)ccc1-c1c[nH]c(-c2ccc(Cl)nc2)n1 [Example 33] | 2.92 | 193 to 195 °C | – | – |
| COc1cc(OCc2ncc(C(F)(F)F)cc2Br)ccc1-c1[nH]c(-c2ccc(F)nc2)nc1Cl [Example 263] | 3.18 | 166 to 170 °C | – | – |
| COc1cc(OCc2cccnc2C(F)(F)F)ccc1-c1[nH]c(-c2ccc(F)nc2)nc1Br [Example 278] | 2.95 | 176 to 179 °C | – | – |
| COc1cc(OCc2ncc(Cl)cc2Br)ccc1-c1[nH]c(-c2ccc(F)nc2)nc1Br [Example 264] | 2.99 | 196 to 203 °C | – | – |
| COc1cc(OCc2cccc(C(F)(F)F)n2)ccc1-c1c[nH]c(-c2ccc(Cl)nc2)n1 [Example 36] | 2.4 | 222 to 224 °C | – | – |
| COc1cc(OCc2ccnc(C(F)(F)F)c2)ccc1-c1[nH]c(-c2ccc(F)nc2)nc1Br [Example 271] | 3.39 | 223 to 225 °C (dec.) | – | – |
| COc1cc(OCc2ccc(Cl)cc2F)ccc1-c1[nH]c(-c2ccc(F)nc2)nc1Br [Example 259] | 2.93 | 165 to 167 °C | – | – |
| COc1cc(OCc2ccc(F)cc2F)ccc1-c1cnc(-c2ccc(F)nc2)[nH]1 [Example 142] | 2.27 | 168 to 173 °C | – | – |
| COc1cc(OCc2ccc(C(F)(F)F)nc2)ccc1-c1nc(-c2ccc(Cl)nc2)[nH]c1Cl [Example 229] | 2.62 | 205 to 208 °C | – | – |
| COc1cc(OCc2ncc(C(F)(F)F)cc2Cl)ccc1-c1[nH]c(-c2ccc(F)nc2)nc1Br [Example 261] | 4.08 | 179 to 180 °C | – | – |
| COc1cc(OCc2cnc(Cl)cn2)ccc1-c1c[nH]c(-c2ccc(F)nc2)n1 [Example 123] | 3.22 | 197 to 199 °C | – | – |
| COc1cc(OCc2ccc(F)cc2F)ccc1-c1[nH]c(-c2ccc(F)nc2)nc1Br [Example 258] | 2.91 | 164 to 166 °C | – | – |
| COc1cc(OCc2ncc(C(F)(F)F)cc2Cl)ccc1-c1[nH]c(-c2ccc(F)nc2)nc1Cl [Example 262] | 3.61 | 160 to 162 °C | – | – |
| COc1cc(OCc2ccc(C(F)(F)F)nc2)ccc1-c1nc(-c2ccc(F)nc2)[nH]c1Br [Example 224, 5-[(4-(4-bromo-2-(6-fluoropyridin-3-yl)-1H-imidazol-5-yl)-3-methoxyphenoxy)methyl]-2-(trifluoromethyl)pyridine] | 2.29 | 195 to 197 °C (dec.) | – | – |
| COc1cc(-c2c[nH]c(-c3ccc(Cl)nc3)n2)cc(OC)c1OCc1ccc(C(F)(F)F)cn1 [Example 71] | 2.37 | 171 to 173 °C (dec.) | – | – |

| Structure (SMILES) | fold induction at 10 µM [1] | melting point | solubility at 24 h [2, 3] [µg/mL] | solubility at 24 h [2, 4] [µg/mL] |
| --- | --- | --- | --- | --- |
| COc1cc(OCc2ccc(C(F)(F)F)cc2)ccc1-c1[nH]c(-c2ccc(F)nc2)nc1Cl [Example 176] | 2.83 | 163 to 166 °C | – | – |
| Fc1ccc(-c2nc(F)c(-c3ccc(OCc4ncc(C(F)(F)F)cc4F)cc3)[nH]2)cn1 [Example 356] | 2.06 | 222 to 227 °C | – | – |
| COc1cc(OCc2ncc(Cl)cc2C(F)(F)F)ccc1-c1[nH]c(-c2ccc(F)nc2)nc1Cl [Example 280] | 2.91 | 156 to 158 °C | – | – |
| COc1cc(OCc2ncc(Cl)cc2F)ccc1-c1[nH]c(-c2ccc(Cl)nc2)nc1Br [Example 248] | 2.36 | 172 to 176 °C | – | – |
| COc1cc(OCc2ncc(Cl)cc2Br)ccc1-c1cnc(-c2ccc(F)nc2)[nH]1 [Example 134] | 2.85 | 176 to 180 °C | – | – |
| COc1cc(OCc2ccncc2C(F)(F)F)ccc1-c1[nH]c(-c2ccc(F)nc2)nc1Cl [Example 277] | 2.66 | 203 to 208 °C | – | – |
| COc1cc(OCc2ccc(C(F)(F)F)cn2)ccc1-c1nc(-c2ccc(Cl)nc2)[nH]c1Cl [Example 235] | 2.78 | 180 to 182 °C | – | – |
| COc1cc(OCc2ncc(Cl)cc2F)ccc1-c1[nH]c(-c2ccc(Cl)nc2)nc1Cl [Example 249] | 2.5 | 174 to 181 °C | – | – |
| COc1cc(OCc2ccnc(C(F)(F)F)c2)ccc1-c1[nH]c(-c2ccc(Cl)nc2)nc1Cl [Example 242] | 2.38 | 236 to 239 °C | – | – |
| COc1cc(OCc2cncc(C(F)(F)F)c2)ccc1-c1[nH]c(-c2ccc(Cl)nc2)nc1Cl [Example 241] | 2.45 | 198 to 201 °C | – | – |
| COc1cc(OCc2cncc(C(F)(F)F)c2)ccc1-c1[nH]c(-c2ccc(Cl)nc2)nc1Br [Example 252] | 2.58 | 186 to 199 °C | – | – |
| COc1cc(OCc2cnc(C)cn2)ccc1-c1nc(-c2ccc(Cl)nc2)[nH]c1Cl [Example 219] | 2.42 | – | 7.5 (≈ 17 µM) | < 1.6 |
| COc1cc(OCc2ccc(C(F)(F)F)nc2)ccc1-c1c(Br)nc(-c2ccc(Cl)nc2)n1C [Example 299] | 2.97 | 140 to 142 °C | – | – |
| COc1cc(-c2cnc(C3CCC(F)(F)C3)[nH]2)ccc1OCc1ncc(C(F)(F)F)cc1F (centres unmarked) [Example 341] | 1.75 | – | 91.7 (≈ 195 µM) | 15.8 (≈ 33.5 µM) |
| COc1c(OCc2ccc(C(F)(F)F)nc2)ccc(-c2cnc(C3CCC(F)(F)CC3)[nH]2)c1OC [Example 14] | 5.42 | – | > 99 | < 0.4 |
| Fc1ccc(-c2ncc(-c3ccc(OCc4ncc(C(F)(F)F)cc4F)cc3OCc3ccccc3)[nH]2)cn1 [Example 398, 2-[(3-(benzyloxy)-4-(2-(6-fluoropyridin-3-yl)-1H-imidazol-5-yl)phenoxy)methyl]-3-fluoro-5-(trifluoromethyl)pyridine] | 2.22 | – | 79.2 (≈ 147 µM) | 39.7 (≈ 73.7 µM) |
| COc1cc(OC(C)c2ccc(C(F)(F)F)cn2)ccc1-c1c[nH]c(-c2ccc(F)nc2)n1 (centres unmarked) [Example 117] | 3.38 | – | 80.2 (≈ 175 µM) | 2.6 (≈ 5.67 µM) |
| COc1cc(OCc2ccc(C(F)(F)F)cn2)ccc1-c1c(Cl)nc(-c2ccc(F)nc2)n1CC1CC1 [Example 296] | 3.48 | – | 73 (≈ 137 µM) | 2.3 (≈ 4.32 µM) |
| COc1cc(OCc2ncc(C(F)(F)F)cc2F)ccc1-c1cnc(C2CC2)[nH]1 [Example 375] | 1.83 | – | 73.9 (≈ 181 µM) | 72.5 (≈ 178 µM) |
